system: rabbit skeletal myofibrils (fast skeletal myofibrils); experiment: Activation of fast skeletal myofibrils (PUMA assay, AC1.4); type: biochemical; settings: calcium at pCa25, AC1.4 = concentration at which the compound increased the enzymatic activity
Description: Preparation of fast skeletal myofibrils: Rabbit skeletal myofibrils were prepared based upon the method of Herrmann et al. (Biochem. 32(28):7255-7263(1993). Myofibrils were prepared from rabbit psoas muscle purchased from Pel-Freez Biologicals (Arkansas) within 2 days of ordering, stored on ice. Minced muscle was homogenized in 10 volumes of ice-cold “standard” buffer (50 mM Tris, pH 7.4, 0.1 M KOAc, 5 mM KCl, 2 mM dithiothreitol (DTT), 0.2 mM phenylmethylsulfonyl fluoride (PMSF), 10 μM leupeptin, 5 μM pepstatin, and 0.5 mM sodium azide) containing 5 mM ethylenediaminetetraacetic acid (EDTA) and 0.5% Triton X-100 using an Omni-Macro homogenizer. Myofibrils were recovered by low speed centrifugation (3000 rpm for 10 minutes) and washed 2 times in the Triton X-100 containing buffer to ensure removal of cellular membrane. Following the Triton washes, myofibrils were washed 3 times in “standard” buffer containing 2 mM magnesium acetate. A final wash in assay buffer (12 mM piperazine-1,4-bis(2-ethanesulfonic acid) (PIPES), pH 6.8, 60 mM KCl, 1 mM DTT) was performed and brought to 10% sucrose for flash freezing in liquid nitrogen and storage at −80° C.
Activation of Fast Skeletal Myofibrils: Fast fiber activators were identified by measuring the enzymatic activity of muscle myofibril preparations using the proprietary PUMA (trademark) (see, e.g., U.S. Pat. Nos. 6,410,254, 6,743,599, 7,202,051, and 7,378,254) assay system. Myofibril preparations consisted of rabbit skeletal muscle (approximately 90% fast fibers) that had been mechanically homogenized and washed with a detergent (Triton X-100) to remove cellular membranes. This preparation retained all of the sarcomeric components in a native conformation and the enzymatic activity was still regulated by calcium. Compounds were tested using a myofibril suspension and a level of calcium sufficient to increase enzymatic activity of the myofibrils to 25% of their maximal rate (termed pCa25). Enzymatic activity was tracked via a pyruvate kinase and lactate dehydrogenase-coupled enzyme system. This assay regenerates myosin-produced ADP into ATP by oxidizing NADH, producing an absorbance change at 340 nm. The buffering system was 12 mM PIPES, 2 mM MgCl2, 1 mM DTT at pH 6.8 (PM12 buffer). […] In Table 9, “Example Compound” refers to the compound labeled with the same number in Table 2.

Row | SMILES | AC1.4 [µM]
1 | CC[C@H](C)[C@H]1C(=O)Nc2cc(F)ccc2CN1C(=O)CCO [Compound 43, (S)-3-((S)-sec-butyl)-8-fluoro-4-(3-hydroxypropanoyl)-1,3,4,5-tetrahydro-2H-benzo[e][1,4]diazepin-2-one] | 0.81
2 | CC[C@H](C)[C@H]1C(=O)Nc2c(F)cccc2CN1C(N)=O [Compound 44, (S)-3-((S)-sec-butyl)-9-fluoro-2-oxo-1,2,3,5-tetrahydro-4H-benzo[e][1,4]diazepine-4-carboxamide] | 0.26
3 | CC[C@H](C)[C@H]1C(=O)Nc2ccccc2CN1C(=O)c1cn[nH]c1 [Compound 45, (S)-3-((S)-sec-butyl)-4-(1H-pyrazole-4-carbonyl)-1,3,4,5-tetrahydro-2H-benzo[e][1,4]diazepin-2-one] | 0.08
4 | CC[C@H](C)[C@H]1C(=O)Nc2ccccc2CN1C(=O)c1cnn(C)c1 [Compound 46, (S)-3-((S)-sec-butyl)-4-(1-methyl-1H-pyrazole-4-carbonyl)-1,3,4,5-tetrahydro-2H-benzo[e][1,4]diazepin-2-one] | 0.13
5 | CC[C@H](C)[C@H]1C(=O)Nc2ccccc2CN1C(=O)c1cccc(=O)[nH]1 [Compound 47, (S)-3-((S)-sec-butyl)-4-(6-oxo-1,6-dihydropyridine-2-carbonyl)-1,3,4,5-tetrahydro-2H-benzo[e][1,4]diazepin-2-one] | 0.14
6 | CC[C@H](C)[C@H]1C(=O)Nc2ccccc2CN1C(=O)c1cc[nH]c(=O)c1 [Compound 48, (S)-3-((S)-sec-butyl)-4-(2-oxo-1,2-dihydropyridine-4-carbonyl)-1,3,4,5-tetrahydro-2H-benzo[d][1,4]diazepin-2-one] | 0.06
7 | CC[C@H](C)[C@H]1C(=O)Nc2ccccc2CN1C(=O)c1cc(O)n[nH]1 [Compound 50, (S)-3-((S)-sec-butyl)-4-(3-hydroxy-1H-pyrazole-5-carbonyl)-1,3,4,5-tetrahydro-2H-benzo[e][1,4]diazepin-2-one] | 0.17
8 | CC[C@H](C)[C@H]1C(=O)Nc2ccccc2CN1C(=O)C(C)(C)O [Compound 51, (S)-3-((S)-sec-Butyl)-4-(2-hydroxy-2-methylpropanoyl)-1,3,4,5-tetrahydro-2H-benzo[e][1,4]diazepin-2-one] | 1.23
9 | CC[C@H](C)[C@H]1C(=O)Nc2ccccc2CN1c1nc(N)cc(=O)[nH]1 [Compound 52, (S)-4-(4-Amino-6-oxo-1,6-dihydropyrimidin-2-yl)-3-((S)-sec-butyl)-1,3,4,5-tetrahydro-2H-benzo[e][1,4]diazepin-2-one] | 0.03
10 | CC[C@H](C)[C@H]1C(=O)Nc2ccccc2CN1c1nc(C)cc(=O)[nH]1 [Compound 53, (S)-3-((S)-sec-Butyl)-4-(4-methyl-6-oxo-1,6-dihydropyrimidin-2-yl)-1,3,4,5-tetrahydro-2H-benzo[e][1,4]diazepin-2-one] | 0.10
11 | CC[C@H](C)[C@H]1C(=O)Nc2ccccc2CN1c1cc(=O)[nH]cn1 [Compound 54, (S)-3-((S)-sec-butyl)-4-(6-oxo-1,6-dihydropyrimidin-4-yl)-1,3,4,5-tetrahydro-2H-benzo[e][1,4]diazepin-2-one] | 0.09
12 | CC[C@H](C)[C@H]1C(=O)Nc2ccccc2CN1c1noc(C)n1 [Compound 55, (S)-3-((S)-sec-Butyl)-4-(5-methyl-1,2,4-oxadiazol-3-yl)-1,3,4,5-tetrahydro-2H-benzo[e][1,4]diazepin-2-one] | 0.21
13 | CC[C@H](C)[C@H]1C(=O)Nc2ccccc2CN1c1ncon1 [Compound 56, (S)-3-((S)-sec-Butyl)-4-(1,2,4-oxadiazol-3-yl)-1,3,4,5-tetrahydro-2H-benzo[e][1,4]diazepin-2-one] | 0.08
14 | CC[C@H](C)[C@H]1C(=O)Nc2ccccc2CN1c1c(N)c(=O)c1=O [Compound 57, 3-Amino-4-((S)-3-((S)-sec-butyl)-2-oxo-1,2,3,5-tetrahydro-4H-benzo[e][1,4]diazepin-4-yl)cyclobut-3-ene-1,2-dione] | 0.03
15 | CC[C@H](C)[C@H]1C(=O)Nc2ccccc2CN1C(=O)N(C)C [Compound 58, (S)-3-((S)-sec-butyl)-N,N-dimethyl-2-oxo-1,2,3,5-tetrahydro-4H-benzo[e][1,4]diazepine-4-carboxamide] | 0.13
16 | CC[C@H](C)[C@H]1C(=O)Nc2ccccc2CN1C(=O)N1CC(OC)C1 [Compound 59, (S)-3-((S)-sec-butyl)-4-(3-methoxyazetidine-1-carbonyl)-1,3,4,5-tetrahydro-2H-benzo[e][1,4]diazepin-2-one] | 0.17

Row | SMILES | AC1.4 [µM]
17 | CC[C@H](C)[C@H]1C(=O)Nc2ccccc2CN1c1ncc(N)c(OC)n1 [Compound 60, (S)-4-(5-Amino-4-methoxypyrimidin-2-yl)-3-((S)-sec-butyl)-1,3,4,5-tetrahydro-2H-benzo[e][1,4]diazepin-2-one] | 0.07
18 | CC[C@H](C)[C@H]1C(=O)Nc2ccccc2CN1c1ncncn1 [Compound 61, (S)-3-((S)-sec-Butyl)-4-(1,3,5-triazin-2-yl)-1,3,4,5-tetrahydro-2H-benzo[e][1,4]diazepin-2-one] | 0.07
19 | CC[C@H](C)[C@H]1C(=O)Nc2ccccc2CN1CCO [Compound 62, (S)-3-((S)-sec-Butyl)-4-(2-hydroxyethyl)-1,3,4,5-tetrahydro-2H-benzo[e][1,4]diazepin-2-one] | 2.25
20 | CC[C@H](C)[C@H]1C(=O)Nc2ccccc2C(C)(C)N1C(N)=O [Compound 63, (S)-3-((S)-sec-Butyl)-5,5-dimethyl-2-oxo-1,2,3,5-tetrahydro-4H-benzo[e][1,4]diazepine-4-carboxamide] | 0.10
21 | CC[C@H](C)[C@H]1C(=O)Nc2cccc(Cl)c2CN1C(=O)N1CC(O)C1 [Compound 66, (S)-3-((S)-sec-butyl)-6-chloro-4-(3-hydroxyazetidine-1-carbonyl)-1,3,4,5-tetrahydro-2H-benzo[e][1,4]diazepin-2-one] | 3.00
22 | CC[C@H](C)[C@H]1C(=O)Nc2cccc(Br)c2CN1C(N)=O [Compound 67, (S)-6-bromo-3-((S)-sec-butyl)-2-oxo-1,2,3,5-tetrahydro-4H-benzo[e][1,4]diazepine-4-carboxamide] | 2.15
23 | CC[C@H](C)[C@H]1C(=O)Nc2cccc(C3CC3)c2CN1C(N)=O [Compound 68, (S)-3-((S)-sec-butyl)-6-cyclopropyl-2-oxo-1,2,3,5-tetrahydro-4H-benzo[e][1,4]diazepine-4-carboxamide] | 4.30
24 | CC[C@H](C)[C@H]1C(=O)Nc2ccc(F)cc2CN1C(C)=O [Compound 69, (S)-4-acetyl-3-((S)-sec-butyl)-7-fluoro-1,3,4,5-tetrahydro-2H-benzo[e][1,4]diazepin-2-one] | 0.72
25 | CC[C@H](C)[C@H]1C(=O)Nc2ccc(F)cc2CN1C(=O)c1ccn[nH]1 [Compound 70, (S)-3-((S)-sec-butyl)-7-fluoro-4-(1H-pyrazole-5-carbonyl)-1,3,4,5-tetrahydro-2H-benzo[e][1,4]diazepin-2-one] | 0.23
26 | CC[C@H](C)[C@H]1C(=O)Nc2ccc(F)cc2CN1/C(N)=N\C#N [Compound 71, (S,Z)-3-((S)-sec-butyl)-N′-cyano-7-fluoro-2-oxo-1,2,3,5-tetrahydro-4H-benzo[e][1,4]diazepine-4-carboximidamide] | 0.15
27 | CC[C@H](C)[C@H]1C(=O)Nc2ccc(F)cc2CN1C(=O)N1CC(O)C1 [Compound 72, (S)-3-((S)-sec-butyl)-7-fluoro-4-(3-hydroxyazetidine-1-carbonyl)-1,3,4,5-tetrahydro-2H-benzo[e][1,4]diazepin-2-one] | 0.41
28 | CC[C@H](C)[C@H]1C(=O)Nc2ccc(Cl)cc2CN1C(N)=O [Compound 73, (S)-3-((S)-sec-butyl)-7-chloro-2-oxo-1,2,3,5-tetrahydro-4H-benzo[e][1,4]diazepine-4-carboxamide] | 0.93
29 | CC[C@H](C)[C@H]1C(=O)Nc2ccc(C3CC3)cc2CN1C(N)=O [Compound 74, (S)-3-((S)-sec-butyl)-7-cyclopropyl-2-oxo-1,2,3,5-tetrahydro-4H-benzo[e][1,4]diazepine-4-carboxamide] | 2.39
30 | CC[C@H](C)[C@H]1C(=O)Nc2cc(F)ccc2CN1C(N)=O [Compound 75, (S)-3-((S)-sec-butyl)-8-fluoro-2-oxo-1,2,3,5-tetrahydro-4H-benzo[e][1,4]diazepine-4-carboxamide] | 0.13
31 | CC[C@H](C)[C@H]1C(=O)Nc2cc(F)ccc2CN1C(=O)N1CC(O)C1 [Compound 76, (S)-3-((S)-sec-butyl)-8-fluoro-4-(3-hydroxyazetidine-1-carbonyl)-1,3,4,5-tetrahydro-2H-benzo[e][1,4]diazepin-2-one] | 0.14
